The source of these data is ChEMBL document CHEMBL1156541 (Bioorg Med Chem, 2008).

For orientation: IC50 means the concentration that gives 50% inhibition. A higher IC50 goes with weaker potency in that assay. One may read the logP as the decadic logarithm of the partition coefficient of the neutral form, usually between octanol and water. A lower logP goes with a more hydrophilic compound. Usually pIC50 stands for −log10 of the IC50, conventionally taken in molar units.

The first data set addresses cGMP-specific 3',5'-cyclic phosphodiesterase (Homo sapiens, UniProt O76074). The data set is described as follows: Inhibition of PDE5.
For `CCCc1n[nH]c2c(=O)[nH]c(-c3ccccc3)nc12`, half-maximal inhibition (IC50) required 81.3 nM.
Still for that read-out and setting: in the case of `CCCc1nn(C)c2c(=O)[nH]c(-c3cc(S(=O)(=O)N4CCC(C(N)=O)CC4)ccc3OCC)nc12` it was 2.09 nM.
Still for that read-out and setting: in the case of `CCOc1ccc([C@@H]2c3[nH]c4ccccc4c3C[C@@H]3C(=O)N(C4CCCCC4)C(=O)N23)cc1` it was 7.08 nM; in that of `CCCc1nn(C)c2c(=O)[nH]c(-c3ccccc3)nc12`, 4470 nM; in that of `CCCc1nn(C)c2c(=O)[nH]c(-c3ccccc3O)nc12`, 1000 nM.
The same measure, in the same setting: in the case of `CCCCN1C(=O)[C@H]2Cc3c(n(C)c4ccccc34)[C@H](c3ccc(OC)cc3)N2C1=O` (relative stereo) it was 2000 nM.
The compound `CCCCN1C(=O)[C@H]2Cc3c([nH]c4ccccc34)[C@@H](c3ccc(Cl)cc3)N2C1=O` (relative stereo) gave a half-inhibitory concentration (IC50) of 50.1 nM.
Still for that read-out and setting: in the case of `CCCCN1C(=O)[C@H]2Cc3c([nH]c4ccccc34)[C@@H](c3cccnc3)N2C1=O` (relative stereo) it was 91.2 nM; in that of `CCCCN1C(=O)[C@H]2Cc3c([nH]c4ccccc34)[C@H](c3ccc(C#N)cc3)N2C1=O` (relative stereo), 302 nM; in that of `CCCCN1C(=O)[C@H]2Cc3c([nH]c4ccccc34)[C@@H](c3cccc(Cl)c3)N2C1=O` (relative stereo), 50.1 nM.
Same read-out and setting: the figure for `CCCCN1C(=O)[C@H]2Cc3c([nH]c4ccccc34)[C@@H](c3ccc(C#N)cc3)N2C1=O` (relative stereo) is 912 nM; for `CCCCN1C(=O)[C@H]2Cc3c([nH]c4ccccc34)[C@@H](c3ccoc3)N2C1=O` (relative stereo) it is 100 nM; for `CCCCN1C(=O)[C@H]2Cc3c([nH]c4ccccc34)[C@@H](c3ccsc3)N2C1=O` (relative stereo) it is 30.2 nM.
Still for that read-out and setting: in the case of `CCCCN1C(=O)[C@H]2Cc3c([nH]c4ccccc34)[C@@H](c3ccncc3)N2C1=O` (relative stereo) it was 302 nM.
`CCCCN1C(=O)[C@H]2Cc3c([nH]c4ccccc34)[C@H](c3ccccc3)N2C1=O` (relative stereo) showed a 50% inhibitory concentration (IC50) of 20 nM.
On the same count and under the same terms, in the case of `CCCCN1C(=O)[C@H]2Cc3c([nH]c4ccccc34)[C@H](c3ccc(Cl)cc3)N2C1=O` (relative stereo) it was 20 nM; in that of `CCCCN1C(=O)[C@H]2Cc3c([nH]c4ccccc34)[C@@H](c3ccccc3)N2C1=O` (relative stereo), 60.3 nM; in that of `CCOc1ccc([C@@H]2c3[nH]c4ccccc4c3C[C@@H]3C(=O)N(Cc4ccccc4)C(=O)N23)cc1` (relative stereo), 3.98 nM.
Same read-out and setting: in the case of `CCOc1ccc([C@H]2c3[nH]c4ccccc4c3C[C@@H]3C(=O)N(CCN(C)C)C(=O)N23)cc1` (relative stereo) it was 30.2 nM.
The same measure, in the same setting: in the case of `CCOc1ccc([C@H]2c3[nH]c4ccccc4c3C[C@@H]3C(=O)NC(=O)N23)cc1` (relative stereo) it was 20 nM; in that of `CCOc1ccc([C@@H]2c3[nH]c4ccccc4c3C[C@@H]3C(=O)N(C)C(=O)N23)cc1` (relative stereo), 10 nM.
Turning to `CCOc1ccc([C@H]2c3[nH]c4ccccc4c3C[C@@H]3C(=O)N(CCc4ccccn4)C(=O)N23)cc1` (relative stereo), the IC50 was 6.03 nM.
On the same count and under the same terms, the figure for `CCOc1ccc([C@H]2c3[nH]c4ccccc4c3C[C@@H]3C(=O)N(Cc4ccccc4)C(=O)N23)cc1` (relative stereo) is 18.2 nM; for `CCOc1ccc([C@H]2c3[nH]c4ccccc4c3C[C@@H]3C(=O)N(CCn4cccc4)C(=O)N23)cc1` (relative stereo) it is 100 nM; for `CCCCN1C(=O)[C@H]2Cc3c([nH]c4ccccc34)[C@H](c3cccc(Cl)c3)N2C1=O` (relative stereo) it is 50.1 nM.
In the case of `CCCCN1C(=O)[C@H]2Cc3c([nH]c4ccccc34)[C@H](c3ccccc3OC)N2C1=O` (relative stereo), the half-inhibitory concentration (IC50) was 1000 nM.
Same read-out and setting: the figure for `CCOc1ccc([C@H]2c3[nH]c4ccccc4c3C[C@@H]3C(=O)N(CC)C(=O)N23)cc1` (relative stereo) is 7.08 nM.
Same read-out and setting: in the case of `CCOc1ccc([C@H]2c3[nH]c4ccccc4c3C[C@@H]3C(=O)N(C4CCCCC4)C(=O)N23)cc1` (relative stereo) it was 3.02 nM; in that of `CCOc1ccc([C@H]2c3[nH]c4ccccc4c3C[C@@H]3C(=O)N(Cc4cccnc4)C(=O)N23)cc1` (relative stereo), 20 nM; in that of `CCOc1ccc([C@@H]2c3[nH]c4ccccc4c3C[C@@H]3C(=O)N(CC)C(=O)N23)cc1` (relative stereo), 10 nM.
Still for that read-out and setting: in the case of `CCCc1nn(C)c2c(=O)[nH]c(-c3cc(S(=O)(=O)N4CCN(CCO)CC4)ccc3OCC)nc12` [LODENAFIL] it was 1.91 nM.

System in the next data set: not listed separately
The data set is described as follows: Octanol-water partition coefficient, log P of the compound. The class given is physicochemical.
As for `CCCc1nc(C)c2c(=O)[nH]c(-c3cc(S(=O)(=O)N4CCN(CC)CC4)ccc3OCC)nn12`, the lipophilicity (logP) was found to be 2.56.
Same read-out and setting: the figure for `CCCc1nn(C)c2c(=O)[nH]c(-c3cc(S(=O)(=O)N4CCN(C)CC4)ccc3OCC)nc12` is 2.51; for `CCCCN1C(=O)c2nc(-c3cc(S(=O)(=O)N4CCN(C)CC4)ccc3OCC)[nH]c(=O)c2C1=O` it is 1.86; for `CCCCN1C(=O)[C@H]2CC=C(c3cc(S(=O)(=O)N4CCN(C)CC4)ccc3OCC)CN2C1=O` it is 2.4.
Consider `CCCCN1C(=O)[C@H]2CC=C(c3cc(S(=O)(=O)N4CCN(CC)CC4)ccc3OCC)CN2C1=O`, for which the logP was determined as 2.77.
For the compound `CCOc1ccc(S(=O)(=O)N2CCN(CC)CC2)cc1C1=CC[C@@H]2C(=O)N(C)CC(=O)N2C1`, the logP amounted to 0.792.
Same read-out and setting: in the case of `CCOc1ccc(S(=O)(=O)N2CCN(C)CC2)cc1C1=CC[C@@H]2C(=O)N(C)CC(=O)N2C1` it was 0.416.
On the same count and under the same terms, the figure for `CCCCN1C(=O)[C@H]2CNC(c3cc(S(=O)(=O)N4CCN(CC)CC4)ccc3OCC)=NN2C1=O` is 1.25; for `CCCCN1C(=O)[C@H]2C(=O)NC(c3cc(S(=O)(=O)N4CCN(CC)CC4)ccc3OCC)=NN2C1=O` it is 0.574.
With `CCCCN1C(=O)C2=C(N=C(c3cc(S(=O)(=O)N4CCN(C)CC4)ccc3OCC)NC2)C1=O`, the logP amounted to 0.984.
As for `CN1CC(=O)N2[C@H](c3ccc4c(c3)OCO4)c3[nH]c4ccccc4c3C[C@@H]2C1=O`, the logP came out at 2.36.

Target in the next data set: not listed separately
The data set is described as follows: Inhibition of PDE5.
With `CCCc1nn(C)c2c(=O)[nH]c(-c3ccccc3[N+](=O)[O-])nc12`, the pIC50 was 5.36.
Regarding `CCCc1nn(C)c2c(=O)[nH]c(-c3ccccc3OCC3CC3)nc12`, the negative-log IC50 (pIC50) is listed as 6.02.
Still for that read-out and setting: in the case of `CCCc1nn(C)c2c(=O)[nH]c(-c3cc(S(=O)(=O)N4CCNCC4)ccc3OCC)nc12` it was 8.24.
